Experimental data as given in ChEMBL document CHEMBL1201862, “PubChem BioAssay data set” (2004).
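Growth conditions: 96-well plates. Treatment: test compound, 48 hours, 5 concentrations. Analysis: linear interpolation between bracketing concentrations; unreached endpoints set to highest concentration. GI50: concentration for 50% inhibition of growth.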 Active and inactive are the calls of the source. Cut-off read from the data, not from the text of the source: active = GI50 up to about 1.1 µM and inactive = higher.

Tests used:
Test in all cases: NCI tumour cell line growth inhibition, 48 h
HCC 2998 = system: HCC 2998
SN12C = system: SN12C
A549 = system: A549
T47D = system: T47D
HOP-92 = system: HOP-92
SF-539 = system: SF-539
NCI-H226 = system: NCI-H226
OVCAR-5 = system: OVCAR-5
NCI-H460 = system: NCI-H460
Hs-578T = system: Hs-578T
NCI-H522 = system: NCI-H522
786-0 = system: 786-0
HL-60 = system: HL-60
SNB-19 = system: SNB-19
KM12 = system: KM12
MDA-MB-435 = system: MDA-MB-435
CAKI-1 = system: CAKI-1
TK-10 = system: TK-10
SK-OV-3 = system: SK-OV-3
UACC-62 = system: UACC-62

Row | Structure (SMILES) | GI50 (HCC 2998) | GI50 (SN12C) | GI50 (A549) | GI50 (T47D) | GI50 (HOP-92) | GI50 (SF-539) | GI50 (NCI-H226) | GI50 (OVCAR-5) | GI50 (NCI-H460) | GI50 (Hs-578T) | GI50 (NCI-H522) | GI50 (786-0) | GI50 (HL-60) | GI50 (SNB-19) | GI50 (KM12) | GI50 (MDA-MB-435) | GI50 (CAKI-1) | GI50 (TK-10) | GI50 (SK-OV-3) | GI50 (UACC-62)
1 | O=[N+]([O-])C(=C(N1CCOCC1)N1CCOCC1)/C(Cl)=C(\Cl)Br | > 100 µM (inactive) | 17 µM (inactive) | > 100 µM (inactive) | 15.7 µM (inactive) | 16.2 µM (inactive) | 24.3 µM (inactive) | 27.6 µM (inactive) | 17.1 µM (inactive) | > 100 µM (inactive) | > 100 µM (inactive) | 2.41 µM (inactive) | 25.4 µM (inactive) | 3.86 µM (inactive) | > 100 µM (inactive) | 31.4 µM (inactive) |  |  |  |  | 
2 | O=C(/C=C/c1ccc(C(F)(F)F)cc1)c1c([O-])on[n+]1-c1ccccc1 | 1.98 µM (inactive) | 2.23 µM (inactive) | 4.03 µM (inactive) | 1.8 µM (inactive) | 1.6 µM (inactive) | 2.03 µM (inactive) | 6 µM (inactive) | 3.12 µM (inactive) | 2.29 µM (inactive) |  |  | 0.531 µM (active) | 0.173 µM (active) | 3.12 µM (inactive) | 1.83 µM (inactive) | 1.86 µM (inactive) | 0.288 µM (active) | 1.65 µM (inactive) | 14.3 µM (inactive) | 1.47 µM (inactive)
3 | COc1c(F)c(F)c(C(=O)/C=C2\Nc3ccccc3NC2=O)c(F)c1F | > 10 µM (inactive) | > 10 µM (inactive) | 9.16 µM (inactive) | 4.67 µM (inactive) | > 10 µM (inactive) |  |  |  |  |  |  | 2.32 µM (inactive) | > 10 µM (inactive) |  | 8.22 µM (inactive) | > 10 µM (inactive) | > 10 µM (inactive) | > 10 µM (inactive) | 4.57 µM (inactive) | > 10 µM (inactive)
4 | O=[N+]([O-])c1ccc(/N=N/c2c(O)ccc3cc(S(=O)(=O)O)ccc23)cc1 |  | > 100 µM (inactive) | > 100 µM (inactive) | > 100 µM (inactive) | > 100 µM (inactive) |  |  | > 100 µM (inactive) |  | > 100 µM (inactive) | > 100 µM (inactive) | > 100 µM (inactive) |  | > 100 µM (inactive) | > 100 µM (inactive) | > 100 µM (inactive) | > 100 µM (inactive) | > 100 µM (inactive) | > 100 µM (inactive) | > 100 µM (inactive)
5 | O=C1C(=C/C=C2/SC(c3ccccc3)(c3ccccc3)c3ccccc32)C(=O)c2ccccc21 | > 100 µM (inactive) | > 100 µM (inactive) | > 100 µM (inactive) |  | > 100 µM (inactive) | > 100 µM (inactive) | > 100 µM (inactive) | > 100 µM (inactive) | > 100 µM (inactive) | > 100 µM (inactive) | > 100 µM (inactive) | > 100 µM (inactive) |  | > 100 µM (inactive) | > 100 µM (inactive) | > 100 µM (inactive) | > 100 µM (inactive) | > 100 µM (inactive) | > 100 µM (inactive) | > 100 µM (inactive)
6 | CSC(=O)C[C@@]12O[C@@H]([C@@H](C)C3CCC4[C@@H]5C(O)CC6=CC(=O)C=C[C@]6(C)C5CC[C@@]43C)C[C@](C)(O1)C(C)(C)O2 (stereo not given in full) | 26.2 µM (inactive) | 16.6 µM (inactive) | 15.5 µM (inactive) |  | 9.86 µM (inactive) | 16.3 µM (inactive) | 22.3 µM (inactive) | 17.7 µM (inactive) | 19.1 µM (inactive) |  | 14.1 µM (inactive) | 16.1 µM (inactive) | 7.85 µM (inactive) | 17.5 µM (inactive) | 16 µM (inactive) |  | 18.6 µM (inactive) | 17.8 µM (inactive) | 16.6 µM (inactive) | 10.3 µM (inactive)
7 | CN(C)CC1CC/C(=C\c2ccc(Cl)cc2)C1=O (stereo not given) | 4.69 µM (inactive) | 7.67 µM (inactive) | 20.4 µM (inactive) |  | 7.73 µM (inactive) | 13.7 µM (inactive) | 19.9 µM (inactive) | 18.2 µM (inactive) | 17.4 µM (inactive) |  | 3.48 µM (inactive) | 2.2 µM (inactive) | 0.757 µM (active) | 15.8 µM (inactive) | 3.46 µM (inactive) |  | 3.33 µM (inactive) | 9.86 µM (inactive) | 15.7 µM (inactive) | 7.5 µM (inactive)
8 | C1CN(P2(N3CC3)=NP(N3CC3)(N3CC3)=NP(N3CC3)(N3CC3)=N2)CCO1 (stereo not given) [FOTRETAMINE] | > 100 µM (inactive) | > 68.2 µM (inactive) | > 100 µM (inactive) |  | > 100 µM (inactive) | 44.8 µM (inactive) | > 85.5 µM (inactive) | > 100 µM (inactive) | 4.57 µM (inactive) |  | > 100 µM (inactive) | 55.3 µM (inactive) | 36.6 µM (inactive) | > 100 µM (inactive) | > 100 µM (inactive) |  | > 100 µM (inactive) | > 100 µM (inactive) | > 100 µM (inactive) | > 56.6 µM (inactive)
9 | O=c1[nH]c(S)nc2c1sc(=S)n2-c1ccccc1 | > 100 µM (inactive) | > 100 µM (inactive) | > 100 µM (inactive) |  | 55.3 µM (inactive) | > 100 µM (inactive) | > 100 µM (inactive) | > 100 µM (inactive) | > 100 µM (inactive) |  | > 100 µM (inactive) | > 100 µM (inactive) | > 100 µM (inactive) | > 100 µM (inactive) | > 100 µM (inactive) |  | > 100 µM (inactive) | > 100 µM (inactive) | > 100 µM (inactive) | > 100 µM (inactive)
10 | CC(/C=C/NNC1=NN=C(c2ccccc2)C(c2ccccc2)N1)Sc1ccccc1N (stereo not given) | 15.7 µM (inactive) | 5.79 µM (inactive) | 11.4 µM (inactive) |  | 8.39 µM (inactive) | 8.24 µM (inactive) | 10.9 µM (inactive) | 17.5 µM (inactive) | 9.98 µM (inactive) |  | 3.56 µM (inactive) | 3.71 µM (inactive) | 2.36 µM (inactive) | 12.5 µM (inactive) | 8.85 µM (inactive) |  | 14.7 µM (inactive) | 14.2 µM (inactive) | 17.1 µM (inactive) | 3.39 µM (inactive)
11 | Cc1cc2nc(O)c(CCC(=O)O)nc2cc1C | > 100 µM (inactive) | > 100 µM (inactive) | > 100 µM (inactive) |  | > 100 µM (inactive) | > 100 µM (inactive) | > 100 µM (inactive) | > 100 µM (inactive) | > 100 µM (inactive) |  | 83.8 µM (inactive) | > 100 µM (inactive) | > 100 µM (inactive) | > 100 µM (inactive) | > 100 µM (inactive) |  | > 100 µM (inactive) | > 100 µM (inactive) | > 100 µM (inactive) | > 100 µM (inactive)
12 | Cc1ccccc1/C=C/c1csnn1 | > 100 µM (inactive) | > 100 µM (inactive) | > 57.3 µM (inactive) |  | > 100 µM (inactive) | > 100 µM (inactive) | > 100 µM (inactive) | > 100 µM (inactive) | > 47.3 µM (inactive) |  | > 100 µM (inactive) | > 100 µM (inactive) | 21.1 µM (inactive) | > 100 µM (inactive) | > 100 µM (inactive) |  | > 100 µM (inactive) | > 100 µM (inactive) | > 100 µM (inactive) | > 100 µM (inactive)
13 | c1ccc(CN2CCC3(CC2)SSC2(CCN(Cc4ccccc4)CC2)S3)cc1 | 26.9 µM (inactive) | 87.1 µM (inactive) | 27.7 µM (inactive) |  | > 100 µM (inactive) | > 100 µM (inactive) |  | 85.3 µM (inactive) | 25.6 µM (inactive) | 17.7 µM (inactive) |  | > 100 µM (inactive) | 78 µM (inactive) |  | 45.3 µM (inactive) | 31.3 µM (inactive) | 26.9 µM (inactive) | 64.4 µM (inactive) | > 100 µM (inactive) | 82.8 µM (inactive)
14 | CN1c2ccccc2C2=C(c3ccccc3)CC[C@@H](C(=O)N3C4CC5CC[C@@]4(CS3(=O)=O)C5(C)C)[C@@H]21 (stereo not given in full) |  | > 100 µM (inactive) | > 100 µM (inactive) | > 100 µM (inactive) | > 100 µM (inactive) | > 100 µM (inactive) | > 100 µM (inactive) | > 100 µM (inactive) | > 100 µM (inactive) | > 100 µM (inactive) | 92.3 µM (inactive) | > 100 µM (inactive) |  | > 100 µM (inactive) | > 100 µM (inactive) | > 100 µM (inactive) | > 100 µM (inactive) | > 100 µM (inactive) | > 100 µM (inactive) | > 100 µM (inactive)
15 | CCN(CC)C(=S)N/N=C1\C(=O)Nc2ccccc21 |  | 1.46 µM (inactive) | 0.638 µM (active) |  | 2.79 µM (inactive) | 0.468 µM (active) | 0.59 µM (active) | 6.18 µM (inactive) | 0.406 µM (active) | 0.771 µM (active) | 3.03 µM (inactive) | 0.432 µM (active) | 0.338 µM (active) | 1.69 µM (inactive) | 0.451 µM (active) | 2.51 µM (inactive) | 0.895 µM (active) | 0.348 µM (active) | 3.05 µM (inactive) | 1.31 µM (inactive)
16 | OC(c1ccc(F)cc1)C(F)(F)c1nc2ccccc2o1 (stereo not given) | > 100 µM (inactive) |  |  | 76 µM (inactive) | 21.7 µM (inactive) | > 100 µM (inactive) | > 100 µM (inactive) |  | > 100 µM (inactive) |  |  | > 100 µM (inactive) | > 100 µM (inactive) | > 100 µM (inactive) | 44.3 µM (inactive) | > 100 µM (inactive) | 87.5 µM (inactive) | > 100 µM (inactive) | > 100 µM (inactive) | > 100 µM (inactive)
